Assay results taken from BindingDB's records for doi:10.1021/jm00004a013 (Solvay Pharma, 1995).

Target: Polyunsaturated fatty acid 5-lipoxygenase (Cavia porcellus)
Test: Inhibitory activity against partially-purified Guinea pig PMN 5-lipoxygenase

For Cc1ccnc(N2CCN(CCc3c(C)n4c5c(cc(O)cc35)CCC4)CC2)c1 [2-Methyl-1-{2-[4-(4-methyl-pyridin-2-yl)-piperazin-1-yl]-ethyl}-5,6-dihydro-4H-pyrrolo[3,2,1-ij]quinolin-8-ol], the IC50 was 2.8 µM.
